What all share (format): in vivo, human
The nature of assay [1]: Sensory evaluation of Reb A, Reb D and Reb N solutions in water (Example 2). Conditions: 500 ppm (wt/wt) in water, room temperature; for Sweetness Intensity (percent sucrose equivalent sweetness): two scientists, sucrose standards 6%, 7%, 8%; for Bitterness: intensity scale 1-9. Also noted: key to Bitterness: 1 = none; 2 = trace; 3 = faint; 4 = mild; 5 = moderate; 6 = definite; 7 = strong; 8 = very strong; 9 = extreme. The protocol: Solutions containing 500 ppm (wt/wt) of RebA, RebD and RebN, respectively, in water were prepared and evaluated at room temperature by two scientists with training and experience in the sensory evaluation of steviol glycosides. The samples were evaluated for sweetness intensity and other qualitative attributes. A set of sucrose standards were prepared by dissolving sugar into room temperature water (6%, 7%, 8% by weight) and used as references for sweetness intensity.

A short description of assay [2]: Sensory evaluation in citric/citrate buffer at pH 3.2 (Example 4). Also noted: key to Bitterness intensity: 0=none; 1=trace; 2=faint; 3=slight; 4=mild; 5=moderate; 6=definite; 7=strong; 8=very strong; 9=extreme. On the procedure:
Method: Solutions containing 600 ppm (wt/wt) Reb A or blends of Reb A, Reb B and Reb N in citric/citrate buffer at pH 3.2 were prepared and evaluated at room temperature by three scientists with training and experience in the sensory evaluation of steviol glycosides. The samples were evaluated for sweetness intensity and other qualitative attributes.

Assay [3] can be described thus: Sensory evaluation of three-way blends of reb A, reb B and reb N in water (Example 3). Conditions: 500 ppm (wt/wt) in water, room temperature. On the procedure: Solutions containing 500 ppm (wt/wt) of blends of reb A, reb B, and reb N in water were prepared and evaluated at room temperature by five scientists with training and experience in the sensory evaluation of steviol glycosides. The samples were evaluated for sweetness intensity and other qualitative attributes and compared against Reb A. The results are shown in the following table: […]

Assay [4] in a line: Sensory evaluation of 4-way blend in deionized water (Example 5). On the set-up: key to Bitterness / Licorice note: 0=none; 1=trace; 2=faint; 3=slight; 4=mild; 5=moderate; 6=definite; 7=strong; 8=very strong; 9=extreme. Conditions: 500 ppm in deionized water. The protocol: Method: Solutions containing 500 ppm Reb A or blends of RebA, RebB, RebD and RebN were prepared in deionized water and evaluated at room temperature by three scientists with training and experience in the sensory evaluation of steviol glycosides. The samples were evaluated for sweetness intensity and other qualitative attributes.

[5] abbreviates: 600 ppm (wt/wt) in citric/citrate buffer pH 3.2.

Molecules are shown by their SMILES. Entries after “also recorded” stand apart in the source; their conditions may differ.

`C=C1C[C@@]23CC[C@H]4[C@@](C)(CCC[C@@]4(C)C(=O)O[C@@H]4O[C@H](CO)[C@@H](O)[C@H](O[C@@H]5O[C@H](CO)[C@@H](O)[C@H](O)[C@H]5O)[C@H]4O[C@@H]4O[C@@H](C)[C@H](O)[C@@H](O)[C@H]4O)[C@@H]2CC[C@]1(O[C@@H]1O[C@H](CO)[C@@H](O)[C@H](O[C@@H]2O[C@H](CO)[C@@H](O)[C@H](O)[C@H]2O)[C@H]1O[C@@H]1O[C@H](CO)[C@@H](O)[C@H](O)[C@H]1O)C3` [Reb N]: in assay [1], the “Other Sweetness Quality” value was “rounded, and syrupy, and best”; the “Sweetness Linger” value is reported as “moderate”; the “Sweetness Onset” value is “quick”; the “Sweetness Intensity (percent sucrose equivalent sweetness)” value worked out at 7.5% SE. In addition, the Bitterness in assay [1] is given as 1.

For `C=C1C[C@@]23CC[C@H]4[C@@](C)(CCC[C@@]4(C)C(=O)O[C@@H]4O[C@H](CO)[C@@H](O)[C@H](O)[C@H]4O)[C@@H]2CC[C@]1(O[C@@H]1O[C@H](CO)[C@@H](O)[C@H](O[C@@H]2O[C@H](CO)[C@@H](O)[C@H](O)[C@H]2O)[C@H]1O[C@@H]1O[C@H](CO)[C@@H](O)[C@H](O)[C@H]1O)C3` [Reb A, Rebaudioside A], in assay [2] (setting [5]), the Bitter onset result is “extremely rapid”, the Licorice entry is “slight”, the Lingering bitterness entry is given as “strong” and the Sweet profile result was “peaky”. In addition, the Sucrose equivalent sweetness in assay [2] (600 ppm (wt/wt) in citric/citrate buffer pH 3.2, room temperature, three scientists) came to 7%. This compound returned a Bitterness intensity in assay [2] (600 ppm (wt/wt) in citric/citrate buffer pH 3.2, intensity scale 0-9) of 7. The “Sweetness intensity rated by the judges” value in assay [3] amounted to 6.0. In addition, in assay [3] (five scientists), the Bitter result was “moderate”, the Linger entry was “moderate”, the “Sweet (quality)” value was “poor” and the Sweet onset entry is “slow”. In addition, the Lingering bitter aftertaste entry in assay [4] is on record as “moderate”. For the same compound, in assay [4] (room temperature, three scientists), the Sucrose equivalent sweetness was 6%. In assay [4] (intensity scale 0-9), this compound yielded a Bitterness of 6 and a Licorice note of 3. Also, in assay [1], the “Other Sweetness Quality” value is “spikey; also recorded: worst”, the “Sweetness Linger” value is given as “moderate”, the “Sweetness Onset” value is “slow” and the “Sweetness Intensity (percent sucrose equivalent sweetness)” value is 6% SE. Also, in assay [1], the Bitterness is recorded as 5.

For the compound `C=C1C[C@@]23CC[C@H]4[C@@](C)(CCC[C@@]4(C)C(=O)O[C@@H]4O[C@H](CO)[C@@H](O)[C@H](O)[C@H]4O[C@@H]4O[C@H](CO)[C@@H](O)[C@H](O)[C@H]4O)[C@@H]2CC[C@]1(O[C@@H]1O[C@H](CO)[C@@H](O)[C@H](O[C@@H]2O[C@H](CO)[C@@H](O)[C@H](O)[C@H]2O)[C@H]1O[C@@H]1O[C@H](CO)[C@@H](O)[C@H](O)[C@H]1O)C3` [Reb D, Rebaudioside D], in assay [1], the “Other Sweetness Quality” value was “rounded, and syrupy and best”; the “Sweetness Linger” value is given as “slight”; the “Sweetness Onset” value is recorded as “quick”; the “Sweetness Intensity (percent sucrose equivalent sweetness)” value was 7% SE. Moreover, the Bitterness in assay [1] was found to be 2.

These data come from patent US20210221834A1, “SWEETENER AND SWEETENED COMPOSITIONS INCORPORATING REBAUDOSIDE N” (CARGILL, INCORPORATED, priority 2013, published 2021).
